Experimental data reported in patent publication US9889184B2 (priority 2008, dated 2018).

Legend:
Fov hyphae [1] = experiment: Uptake of FITC-labeled dextrans into NaD1-treated hyphae; type: cell-based, Fusarium oxysporum f. sp. vasinfectum
Procedure: The uptake of FITC-labeled dextran following NaD1 treatment of fungal hyphae was also studied. Fov hyphae were grown as described above and incubated with NaD1 (final concentration 0.1, 2, 10 or 50 μM) or an equivalent volume of water for 2 h at RT with gentle agitation. Hyphae were washed twice for 10 min with half-strength PDB to remove excess NaD1 before FITC dextrans of either 4 kDa (FD-4, Sigma-Aldrich) or 10 kDa (FD-10, Sigma-Aldrich) were added to a final concentration of 1 μM. Hyphae were incubated for a further 30 min at RT and then washed twice with half strength PDB to remove excess dextrans. Fluorescence microscopy was used to visualize hyphae as described for SYTOX® green. A second assay was performed under the same conditions except the dextrans were added at the same time as NaD1.

Fov hyphae [2] = experiment: Membrane permeabilization of Fov hyphae, SYTOX green uptake; type: cell-based, Fusarium oxysporum f. sp. vasinfectum
Procedure: Fov hyphae were grown in half-strength PDB (10 mL in a 50 mL tube) from a starting concentration of 5×10^4 spores/mL for 18 h at 25° C. with constant shaking. Samples (1 mL) were then removed and NaD1 (final concentration 2 μM), NaD1R&A (final concentration 2 μM) or an equivalent volume of water was added before incubation for 2 h at RT with gentle agitation. SYTOX® green (Invitrogen-Molecular Probes, Eugene, Oreg.) was added to a final concentration of 0.5 μM and the hyphae were allowed to stand for 10 min. Hyphae (20 μL) were then transferred to microscope slides (SuperFrost (Registered) Plus, Menzel-Glaser) and covered with glass coverslips for visualization of SYTOX® green uptake using an Olympus BX51 fluorescence microscope. SYTOX® green fluorescence was detected using an MWIB filter (excitation wavelength 460-490 nm). Images were captured using a SPOT RT 3CCD digital camera (Diagnostic Instruments) and processed using Adobe Photoshop. SYTOX® green uptake was quantitated by measuring fluorescence of hyphae in microtitre trays using a fluorimeter (SpectraMax M2; Molecular Devices) with excitation and emission wavelengths of 488 nm and 538 nm, respectively.
The effect of temperature on membrane permeabilization of Fov hyphae by NaD1 was monitored as described, except hyphae were pre-equilibrated for 60 min at either 10°, 4° or 0° C. before addition of NaD1 and all subsequent steps were carried out at these temperatures.
The kinetics of membrane permeabilization by NaD1 were studied. Fov hyphae were grown in half-strength PDB from a starting concentration of 5×10^4 spores/mL for 18 h at 25° C. Hyphae (80 μL) were then transferred to 96-well microtitre plates and incubated with SYTOX® green (0.5 μM) for 10 min prior to the addition of 20 μL of peptide solution to give final protein concentrations of 0.2, 0.4, 0.8, 1.6, 3.12, 6.25, 12.5, 25, 50 or 100 μM. Fluorescence readings (Ex; 488 nm, Em; 538 nm) were then taken every 2 min for 3 h using a fluorimeter (SpectraMax M2).

Fov hyphae [3] = experiment: Detection of reactive oxygen species (DHR123 oxidation); type: cell-based, Fusarium oxysporum f. sp. vasinfectum
Procedure: Fov hyphae were grown as described herein and incubated with 5 μg/mL dihydrorhodamine 123 (Sigma-Aldrich) for 2 h followed by extensive washing with growth medium. […] Fluorescence was then measured on a fluorimeter with excitation and emission wavelengths of 488 nm and 538 nm respectively or visualized by fluorescence microscopy. The experiment was repeated either in the presence of ascorbic acid (10 mM) or 2,2,6,6-tetramethylpiperidine-N-oxyl (TEMPO, 3 mM).

[4] = tested on: Fusarium oxysporum f. sp. vasinfectum (Fov); experiment: Growth inhibition of Fov by NaD1 (microtitre OD595); type: cell-based
Procedure: Lyophilized NaD1 (500 μg) was dissolved in 400 μL of stock buffer (200 mM Tris-HCl pH 8.0, 2 mM EDTA, 6 M guanidine-HCl, 0.02% [v/v] Tween-20). Reduction buffer (stock buffer with 15 mM dithiothreitol [DTT]) was added (44 μL) followed by a 4.5 h incubation at 40° C. The reaction mixture was cooled to RT before iodoacetic acid (0.5 M in 1 M NaOH, 55 μL) was added and the incubation continued in the dark for 30 min at RT. A Nanosep omega (Registered) spin column (3K molecular weight cut off, PALL Life Sciences) was used to remove salts, DTT and iodoacetic acid and the protein concentration was determined using the BCA protein assay (Pierce). The effect of reduced and alkylated NaD1 (NaD1R&A) on the growth of Fusarium oxysporum (Fov) was measured as described herein.
Antifungal activity against Fusarium oxysporum f. sp. vasinfectum (Fov, Australian isolate VCG01111 isolated from cotton; from Wayne O'Neill, Farming Systems Institute, DPI, Queensland, Australia), Thielaviopsis basicola (gift from David Nehl, NSW DPI, Narrabri, Australia), Verticillium dahliae (from Helen McFadden, CSIRO Plant Industry, Black Mountain, Australia), Leptosphaeria maculans (from Barbara Howlett, University of Melbourne, Victoria, Australia) and Aspergillus nidulans (from Michael Hynes, University of Melbourne) was assessed essentially as described in Broekaert et al, 1990. Spores were isolated from sporulating cultures growing in either half-strength potato dextrose broth (PDB) (Fov and T. basicola), Czapeck-Dox Broth (V. dahliae) (Difco Laboratories) or 10% (v/v) clarified V8 medium (L. maculans and A. nidulans) by filtration through sterile muslin. Spore concentrations were determined using a hemocytometer and adjusted to 5×10^4 spores/mL in the appropriate growth medium. Spore suspensions (80 μL) were added to the wells of sterile 96-well flat-bottomed microtitre plates along with 20 μL of filter-sterilized (0.22 μm syringe filter; Millipore) NaD1, or water to give final protein concentrations of 0-10 μM. The plates were shaken briefly and placed in the dark at 25° C. without shaking until the optical density at 595 nm of the water control reached approximately 0.2 (24-72 h depending on growth rate). Hyphal growth was estimated by measuring the optical density at 595 nm using a microtitre plate reader (SpectraMax Pro M2; Molecular Devices). Each test was performed in quadruplicate.

## NaD1: plant defensin isolated from floral tissue of Nicotiana alata (SEQ ID NO:12) (RECKTESNTFPGICITKPPCRKACISEKFTDGHCSKILRRCLCTKPC; Nicotiana alata (NaD1))
Fov hyphae [1]; even at very high concentrations of NaD1
  entry of 10 kDa FITC-dextran (23 Å) into NaD1-treated hyphae: excluded
Fov hyphae [1]; same NaD1 concentration that led to SYTOX green uptake
  entry of 4 kDa FITC-dextran (14 Å) into NaD1-treated hyphae: entered hyphae
Fov hyphae [2]; 0° C., compared with 4° C.
  NaD1-induced permeabilization (SYTOX green uptake): reduced even further
Fov hyphae [2]; 0.1, 2 or 10 μM NaD1 or 10 μM NaD1R&A
  permeabilization of Fov hyphal membranes (SYTOX green): permeabilized hyphae
Fov hyphae [2]; 4° C.
  NaD1-induced permeabilization (SYTOX green uptake): only a small degree of permeabilization
Fov hyphae [2]; 10° C., less than at 25° C.
  NaD1-induced permeabilization (SYTOX green uptake): substantial uptake of SYTOX® green
Fov hyphae [2]; Vmax = maximum rate of fluorescence increase
  NaD1 concentration up to which Vmax increased linearly; above it rate unchanged (saturable): 6.25 µM
Fov hyphae [2]; above it (up to 50 μM) very little difference in kinetics
  NaD1 concentration up to which the rate of permeabilization increased progressively: 3 µM
Fov hyphae [2]; all NaD1 concentrations
  lag time before permeabilization: around 20 min
  time after which fluorescence began to plateau: 90 min
Fov hyphae [2]; lowest concentration of NaD1 (0.1 μM)
  SYTOX green uptake: a small amount of SYTOX® green uptake occurred
Fov hyphae [3]; NaD1 0.1, 2 and 10 μM or 10 μM NaD1R&A
  ROS production, DHR123 fluorescence: concentration-dependent increase in fluorescence
Fov hyphae [3]; ascorbic acid or TEMPO present
  DHR123 oxidation by NaD1 in the presence of ROS scavengers: did not alter the level of fluorescence
[4]; 1 μM NaD1, Fov
  growth retarded: 50%
[4]; 5 μM NaD1, Fov
  growth inhibited: more than 80%
[4]; 10 mM ascorbic acid
  growth inhibition of Fov by NaD1 with ROS scavenger: nor did the presence of 10 mM ascorbic acid affect growth inhibition
[4]; Fusarium oxysporum f. sp. vasinfectum
  IC50: 1000 nM
[4]; NaD1 0.1 μM
  growth inhibition of Fov: no growth inhibition was observed
[4]; NaD1 concentration used for microscopy (10 μM)
  growth inhibition of Fov: > 90%
